# Experimental data from US20240158446A1, “CYCLIC COMPOUND HAVING SELECTIVE INHIBITORY ACTION ON KRAS OVER HRAS AND NRAS” (CHUGAI SEIYAKU KABUSHIKI KAISHA, priority 2021, published 2024).
# *1 amine or outer side, *2 acyl side, *3 side chain or, on linkers, in order; H or OH if unused. Where a SMILES comes first, the peptide text is derived from it. Bridges are numbered along the chain shown (N, C = ends). [ ]: non-standard residue; d: D form. The star is where a group is joined. hPhe(3-Cl-4-CF3) = N[C@@H](CCc1ccc(C(F)(F)F)c(Cl)c1)C(=O)O; NPrPhe(4-CF3) = CCCN[C@@H](Cc1ccc(C(F)(F)F)cc1)C(=O)O; NEtAsp = CCN([C@@H](CC(=O)[*:3])C(=O)[*:2])[*:1]; NMeGly(cPent) = CN[C@H](C(=O)O)C1CCCC1; NMeD = CN[C@@H](CC(=O)O)C(=O)O; Ac4c(3-oxa) = NC1(C(=O)O)COC1; NMeL = CN[C@@H](CC(C)C)C(=O)O; Morpholide = C1CN(*)CCO1; NMeA = CN[C@@H](C)C(=O)O; Ac5c = NC1(C(=O)O)CCCC1; Aze = O=C(O)[C@@H]1CCN1; Ac4c = NC1(C(=O)O)CCC1; Sar = CNCC(=O)O
# How the values were obtained:
# [1] = molecular target: GDP-bound HRAS wild-type protein (Homo sapiens, UniProt P01112); assay: Binding to HRAS by surface plasmon resonance (SPR), Single Cycle Kinetics; conditions: ratio of KD for GDP-bound HRAS wild-type protein to KD for KRAS, SPR
# [2] = molecular target: GDP-bound NRAS wild-type protein (Homo sapiens, UniProt P01111); assay: Binding to NRAS by surface plasmon resonance (SPR), Single Cycle Kinetics; conditions: ratio of KD for GDP-bound NRAS wild-type protein to KD for KRAS, SPR
# [3] = molecular target: GDP-bound KRAS wild-type protein (Homo sapiens, UniProt P01116); assay: Binding to KRAS by surface plasmon resonance (SPR), Single Cycle Kinetics; conditions: SPR, Single Cycle Kinetics, GDP-bound KRAS wild-type protein; read-out: KRAS KD
# [4] = system: human lung cancer strain NCI-H441; assay: cells; conditions: NCI-H441, 96 h, read-out: NCI-H441 IC50 (nM), NCI-H441 cell proliferation, 4 days, CellTiter-Glo;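 further: cell proliferation inhibition after four days measured by CellTiter-Glo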
# Sequence of GDP-bound KRAS wild-type protein (P01116 whole entry): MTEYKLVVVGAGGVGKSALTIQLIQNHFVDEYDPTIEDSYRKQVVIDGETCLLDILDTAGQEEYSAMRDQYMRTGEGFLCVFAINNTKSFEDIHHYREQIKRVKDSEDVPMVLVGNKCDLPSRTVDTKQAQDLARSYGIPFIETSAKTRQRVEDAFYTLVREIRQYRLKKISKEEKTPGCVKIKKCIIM
# Sequence of GDP-bound HRAS wild-type protein (P01112 whole entry): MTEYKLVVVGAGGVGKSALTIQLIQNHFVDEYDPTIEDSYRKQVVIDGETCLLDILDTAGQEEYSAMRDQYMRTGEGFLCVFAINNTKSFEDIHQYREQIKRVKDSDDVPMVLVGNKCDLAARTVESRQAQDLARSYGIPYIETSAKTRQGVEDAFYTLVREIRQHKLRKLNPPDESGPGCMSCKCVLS
# Sequence of GDP-bound NRAS wild-type protein (P01111 whole entry): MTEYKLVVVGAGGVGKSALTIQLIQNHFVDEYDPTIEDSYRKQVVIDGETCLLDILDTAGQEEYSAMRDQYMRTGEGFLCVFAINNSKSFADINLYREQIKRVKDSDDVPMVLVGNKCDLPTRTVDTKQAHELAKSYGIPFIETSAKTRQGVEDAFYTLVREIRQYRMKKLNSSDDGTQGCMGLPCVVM
Compound,Kd [3] [nM],IC50 [4] [nM],HRAS/KRAS (KD ratio) [1],NRAS/KRAS (KD ratio) [2]
CCCN1C(=O)CN(C)C(=O)[C@H](C)NC(=O)[C@H]([C@@H](C)CC)NC(=O)[C@H](CC(C)C)N(C)C(=O)C[C@@H](C(=O)N2CCOCC2)N(C)C(=O)[C@H](C2CCCC2)N(C)C(=O)C2(CCCC2)NC(=O)[C@@H]2CCCN2C(=O)[C@H](CCc2ccc(C(F)(F)F)c(Cl)c2)NC(=O)CN(C)C(=O)[C@@H]1Cc1ccc(C(F)(F)F)cc1 [PP1971] ([NMeL]IA[Sar][NPrPhe(4-CF3)][Sar][hPhe(3-Cl-4-CF3)]P[Ac5c][NMeGly(cPent)][NMeD]-Morpholide; lactam N-11),5,38,B (a compound having 3 or more and less than 10 is denoted as B),B (a compound having 3 or more and less than 10 is denoted as B)
CCCN1C(=O)[C@@H]2CCN2C(=O)[C@H](C)N(C)C(=O)[C@H]([C@@H](C)CC)NC(=O)[C@H](CC(C)C)N(C)C(=O)C[C@@H](C(=O)N(C)C)N(CC)C(=O)[C@H](C2CCCC2)N(C)C(=O)C2(CCC2)NC(=O)[C@@H]2CCCN2C(=O)[C@H](CCc2ccc(C(F)(F)F)c(Cl)c2)NC(=O)CN(C)C(=O)[C@@H]1Cc1ccc(C(F)(F)F)cc1 [PP1957] ([NMeL]I[NMeA][Aze][NPrPhe(4-CF3)][Sar][hPhe(3-Cl-4-CF3)]P[Ac4c][NMeGly(cPent)][NEtAsp]-NMe2; lactam N-11),0.36,8.6,B (a compound having 3 or more and less than 10 is denoted as B),C (A compound having a KD ratio of 0.1 or more and less than 3 is denoted as C)
CCCN(C)C(=O)[C@@H]1CC(=O)N(C)[C@@H](COCC)C(=O)N[C@@H]([C@@H](C)CC)C(=O)N(C)CC(=O)N(C)[C@H]2C/C=C\CCN(C2=O)[C@@H](Cc2ccc(C(F)(F)F)cc2)C(=O)N(C)CC(=O)N[C@@H](CCc2cc(F)c(C(F)(F)F)c(F)c2)C(=O)N2C[C@H](OCC)C[C@H]2C(=O)NC2(CC(C)(C)C2)C(=O)N(C)[C@@H](C2CCCC2)C(=O)N1C [PP2031],0.14,5.5,B (a compound having 3 or more and less than 10 is denoted as B),B (a compound having 3 or more and less than 10 is denoted as B)
CCO[C@@H]1C[C@H]2C(=O)NC3(CC(F)(F)C3)C(=O)N(C)[C@@H](C(CC)CC)C(=O)N(C)[C@H](CC)CC(=O)N(C)[C@@H](CC3CC3)C(=O)N[C@@H]([C@@H](C)CC)C(=O)N(C)CC(=O)N(C)[C@H]3C/C=C\CCN(C3=O)[C@@H](Cc3ccc(C(F)(F)F)cc3)C(=O)N(C)CC(=O)N[C@@H](CCc3cc(F)c(C(F)(F)F)c(F)c3)C(=O)N2C1 [PP1632],3.7,116,A (a compound having 10 or more and less than 20 is denoted as A),A (a compound having 10 or more and less than 20 is denoted as A)
CCCN1C(=O)CN(C)C(=O)CN(C)C(=O)[C@H]([C@@H](C)CC)NC(=O)[C@H](CC(C)C)N(C)C(=O)C[C@@H](C(=O)N2CCOCC2)N(C)C(=O)[C@H](C2CCCC2)N(C)C(=O)C2(COC2)NC(=O)[C@@H]2CCCN2C(=O)[C@H](CCc2ccc(C(F)(F)F)c(Cl)c2)NC(=O)CN(C)C(=O)[C@@H]1Cc1ccc(C(F)(F)F)cc1 [PP1922] ([NMeL]I[Sar][Sar][NPrPhe(4-CF3)][Sar][hPhe(3-Cl-4-CF3)]P[Ac4c(3-oxa)][NMeGly(cPent)][NMeD]-Morpholide; lactam N-11),0.23,44.1,C (A compound having a KD ratio of 0.1 or more and less than 3 is denoted as C),B (a compound having 3 or more and less than 10 is denoted as B)
CCO[C@@H]1C[C@H]2C(=O)NC3(CC(C)(C)C3)C(=O)N(C)[C@@H](C3CCCC3)C(=O)N(C)[C@H](C(=O)N(C)CC)CC(=O)N(C)[C@@H](C(C)C)C(=O)N[C@@H]([C@@H](C)CC)C(=O)N(C)CC(=O)N(C)[C@H]3C/C=C\CCN(C3=O)[C@@H](Cc3ccc(C(F)(F)F)cc3)C(=O)N(C)CC(=O)N[C@@H](CCc3ccc(C(F)(F)F)c(OC)c3)C(=O)N2C1 [PP1977],0.15,20.2,A (a compound having 10 or more and less than 20 is denoted as A),AA (a compound having 20 or more is denoted as AA)
CCO[C@@H]1C[C@H]2C(=O)NC3(CC(F)(F)C3)C(=O)N(C)[C@@H](C(CC)CC)C(=O)N3CCC[C@@H]3CC(=O)N(C)[C@@H](CC3CC3)C(=O)N[C@@H]([C@@H](C)CC)C(=O)N(C)CC(=O)N(C)[C@H]3C/C=C\CCN(C3=O)[C@@H](Cc3ccc(C(F)(F)F)cc3)C(=O)N(C)CC(=O)N[C@@H](CCc3cc(F)c(C(F)(F)F)c(F)c3)C(=O)N2C1 [PP1614],1.1,54.2,A (a compound having 10 or more and less than 20 is denoted as A),A (a compound having 10 or more and less than 20 is denoted as A)
CC[C@H](C)[C@@H]1NC(=O)[C@H](CC(C)C)N(C)C(=O)C[C@@H](C(=O)N(C)C)N(C)C(=O)[C@H](C2CCCC2)N(C)C(=O)C2(CC(C)(C)C2)NC(=O)[C@@H]2C[C@@H](C)CN2C(=O)[C@H](CCc2ccc(C(F)(F)F)c(OC)c2)NC(=O)CN(C)C(=O)[C@H](Cc2ccc(C)cc2)N2CC/C=C\C[C@@H](C2=O)N(C)C(=O)CN(C)C1=O [PP1908],0.11,10.1,B (a compound having 3 or more and less than 10 is denoted as B),A (a compound having 10 or more and less than 20 is denoted as A)
CC[C@H](C)[C@@H]1NC(=O)[C@H](CC2CC2)N(C)C(=O)C[C@@H](C(=O)N(C)C)N(C)C(=O)[C@H](C2CCCC2)N(C)C(=O)C2(CC(C)(C)C2)NC(=O)[C@@H]2C[C@H](C)CN2C(=O)[C@H](CCc2ccc(C(F)(F)F)c(OC)c2)NC(=O)CN(C)C(=O)[C@H](Cc2ccc(C)cc2)N2CC/C=C\C[C@@H](C2=O)N(C)C(=O)CN(C)C1=O [PP1898],0.13,6.3,B (a compound having 3 or more and less than 10 is denoted as B),B (a compound having 3 or more and less than 10 is denoted as B)

# Now those with a lower Kd [3], led by results:
Kd [3] [nM],IC50 [4] [nM],Compound,HRAS/KRAS (KD ratio) [1],NRAS/KRAS (KD ratio) [2]
0.1,10.7,CC[C@H](C)[C@@H]1NC(=O)[C@H](CC)N(C)C(=O)C[C@@H](C(=O)N(C)C)N(C)C(=O)[C@H](C2CCCC2)N(C)C(=O)C2(CC(C)(C)C2)NC(=O)[C@@H]2C[C@H](C)CN2C(=O)[C@H](CCc2ccc(C(F)(F)F)c(OC)c2)NC(=O)CN(C)C(=O)[C@H](Cc2ccc(C)cc2)N2CC/C=C\C[C@@H](C2=O)N(C)C(=O)CN(C)C1=O [PP1836],B (a compound having 3 or more and less than 10 is denoted as B),A (a compound having 10 or more and less than 20 is denoted as A)
0.1,5.3,CCCN(C)C(=O)[C@@H]1CC(=O)N(C)[C@@H](CCOC)C(=O)N[C@@H]([C@@H](C)CC)C(=O)N(C)CC(=O)N(C)[C@H]2C/C=C\CCN(C2=O)[C@@H](Cc2ccc(C(F)(F)F)cc2)C(=O)N(C)CC(=O)N[C@@H](CCc2ccc(C(F)(F)F)c(OC)c2)C(=O)N2C[C@H](OCC)C[C@H]2C(=O)NC2(CCC2)C(=O)N(C)[C@@H](C2CCCC2)C(=O)N1C [PP2018],B (a compound having 3 or more and less than 10 is denoted as B),A (a compound having 10 or more and less than 20 is denoted as A)
0.087,10.7,CC[C@H](C)[C@@H]1NC(=O)[C@H](CC)N(C)C(=O)C[C@@H](C(=O)N(C)CC)N(C)C(=O)[C@H](C2CCCC2)N(C)C(=O)C2(CC(C)(C)C2)NC(=O)[C@@H]2C[C@H](C)CN2C(=O)[C@H](CCc2ccc(C(F)(F)F)c(OC)c2)NC(=O)CN(C)C(=O)[C@H](Cc2ccc(C)cc2)N2CC/C=C\C[C@@H](C2=O)N(C)C(=O)CN(C)C1=O [PP1868],B (a compound having 3 or more and less than 10 is denoted as B),A (a compound having 10 or more and less than 20 is denoted as A)
0.07,7.4,CCCN(C)C(=O)[C@@H]1CC(=O)N(C)[C@@H](C)C(=O)N[C@@H]([C@@H](C)CC)C(=O)N(C)CC(=O)N(C)[C@H]2C/C=C\CCN(C2=O)[C@@H](Cc2ccc(C(F)(F)F)cc2)C(=O)N(C)CC(=O)N[C@@H](CCc2cc(F)c(C(F)(F)F)c(F)c2)C(=O)N2C[C@H](OCC)C[C@H]2C(=O)NC2(CC(F)(F)C2)C(=O)N(C)[C@@H](C2CCCC2)C(=O)N1C [PP1731],A (a compound having 10 or more and less than 20 is denoted as A),A (a compound having 10 or more and less than 20 is denoted as A)
0.069,3.4,CCCC[C@H]1C(=O)N[C@@H]([C@@H](C)CC)C(=O)N(C)CC(=O)N(C)[C@H]2C/C=C\CCN(C2=O)[C@@H](Cc2ccc(C(F)(F)F)cc2)C(=O)N(C)CC(=O)N[C@@H](CCc2ccc(C(F)(F)F)c(Cl)c2)C(=O)N2C[C@H](OCC)C[C@H]2C(=O)NC2(CC(C)(C)C2)C(=O)N(C)[C@@H](C2CCCC2)C(=O)N(C)[C@H](C(=O)N(C)C)CC(=O)N1C [PP1750],B (a compound having 3 or more and less than 10 is denoted as B),A (a compound having 10 or more and less than 20 is denoted as A)
0.06,1.8,CC[C@H](C)[C@@H]1NC(=O)[C@H](CC(F)(F)F)N(C)C(=O)C[C@@H](C(=O)N(C)C)N(C)C(=O)[C@H](C2CCCC2)N(C)C(=O)C2(CC(C)(C)C2)NC(=O)[C@@H]2CCCN2C(=O)[C@H](CCc2cc(F)c(C(F)(F)F)c(F)c2)NC(=O)CN(C)C(=O)[C@H](Cc2ccc(C(F)(F)F)cc2)N2CC/C=C\C[C@@H](C2=O)N(C)C(=O)CN(C)C1=O [PP1722],A (a compound having 10 or more and less than 20 is denoted as A),AA (a compound having 20 or more is denoted as AA)
